Data: EPA's ToxValDB 9.5 (doi:10.2903/j.efsa.2019.5821)
Converted amounts (≈) assume the structure as drawn.

What was measured:
Rattus norvegicus = settings: for NOAEL: body weight
Oncorhynchus mykiss = settings: acute; duration: 96 hours; mortality
Oryctolagus sp. = settings: developmental; development
Apis mellifera = settings: acute, mortality
Daphnia magna = settings: chronic/long-term; duration: 21 days; reproduction
Folsomia candida = settings: chronic/long-term; duration: 28 days; mortality
Mus musculus = settings: chronic; duration: 18 months; body weight
Tagia sp. = settings: chronic/long-term; duration: 56 days; reproduction
Typhlodromus pyri = experiment: LR50; higher = less toxic; settings: not reported; mortality

Row | Compound | NOAEL (Rattus norvegicus; short-term, duration: 28 days) | LC50 (Oncorhynchus mykiss) | NOAEL (Oryctolagus sp.) | LD50 (Apis mellifera; dermal) | LD50 (Apis mellifera; oral, unspecified) | LC50 (Colinus virginianus; acute, oral, diet, mortality) | LD50 (Colinus virginianus; acute, oral, mortality) | NOEC (Colinus virginianus; reproduction developmental) | NOEC (Daphnia magna) | NOEC (Folsomia candida) | NOAEL (Mus musculus) | LD50 (Rattus norvegicus; acute, oral, mortality) | NOAEL (Rattus norvegicus; reproduction developmental) | NOEC (Tagia sp.) | LR50 (Typhlodromus pyri)
1 | Cn1cc(C(N)=O)c(C(F)F)n1 [3-(Difluoromethyl)-1-methyl-1H-pyrazole-4-carboxamide] | 37.4 mg/kg-day | – | – | – | – | – | – | – | – | – | – | – | – | – | –
2 | Cn1cc(C(=O)O)c(C(F)F)n1 [3-(Difluoromethyl)-1-methyl-1H-pyrazole-4-carboxylic acid] | – | > 100 µg/mL | 250 mg/kg-day | – | – | – | – | – | – | – | – | – | – | – | –
3 | CON(C(=O)c1cn(C)nc1C(F)F)C(C)Cc1c(Cl)cc(Cl)cc1Cl (configuration not stated) [Pydiflumetofen] | – | 0.18 µg/mL (≈ 0.422 µM) | 10 mg/kg-day | > 100 µg/piece | > 116 µg/piece | > 1260 mg/kg-day | 3780 mg/kg-day | 90.1 mg/kg-day | 0.042 mg/L | 186 mg/kg | 9.2 mg/kg-day | > 5000 mg/kg-day | 30 mg/kg-day | 15.9 mg/kg | > 408 g/ha
